pIC50: −log10 of the molar value.
Legend:
[1] = tested on: human colon carcinoma cell line HCT 116; assay: Anti-proliferative activity, Alamar Blue assay; format: cell-based; settings: HCT 116, 72 hours, read-out: IC50 (inhibition of cell growth)
Description: The anti-proliferative activities of compounds of the invention are determined by measuring the ability of the compounds to inhibition of cell growth in a number of cell lines Inhibition of cell growth is measured using the Alamar Blue assay (Nociari, M. M, Shalev, A., Benias, P., Russo, C. Journal of Immunological Methods 1998, 213, 157-167). The method is based on the ability of viable cells to reduce resazurin to its fluorescent product resorufin. For each proliferation assay cells are plated onto 96 well plates and allowed to recover for 16 hours prior to the addition of inhibitor compounds for a further 72 hours. At the end of the incubation period 10% (v/v) Alamar Blue is added and incubated for a further 6 hours prior to determination of fluorescent product at […]. In the case of the non-proliferating cell assay cells are maintained at confluence for 96 hour prior to the addition of inhibitor compounds for a further 72 hours. The number of viable cells is determined by Alamar Blue assay as before. All cell lines are obtained from ECACC (European Collection of cell Cultures).

GSK3-β = target: T1, GSK3-β (Homo sapiens, UniProt P49841); assay: Inhibitory activity against glycogen synthase kinase-3 (Protocol A or B); format: biochemical; settings: either Protocol A or Protocol B; read-out: IC50 (GSK3-B assays)
T1 construct: purchased Upstate Discovery
Description: The activities of the compounds of the invention as inhibitors of GSK-3 were determined using either Protocol A or Protocol B below.
The reaction is allowed to proceed for 3 hours before being stopped with an excess of ortho-phosphoric acid (5 μl at 2%). The filtration procedure is as for Activated CDK2/CyclinA assay above.
GSK3β (human) is diluted to a 10× working stock in 50 mM Tris pH 7.5, 0.1 mM EGTA, 0.1 mM sodium vanadate, 0.1% β-mercaptoethanol, 1 mg/ml BSA.

T1 sequence (P49841 whole entry): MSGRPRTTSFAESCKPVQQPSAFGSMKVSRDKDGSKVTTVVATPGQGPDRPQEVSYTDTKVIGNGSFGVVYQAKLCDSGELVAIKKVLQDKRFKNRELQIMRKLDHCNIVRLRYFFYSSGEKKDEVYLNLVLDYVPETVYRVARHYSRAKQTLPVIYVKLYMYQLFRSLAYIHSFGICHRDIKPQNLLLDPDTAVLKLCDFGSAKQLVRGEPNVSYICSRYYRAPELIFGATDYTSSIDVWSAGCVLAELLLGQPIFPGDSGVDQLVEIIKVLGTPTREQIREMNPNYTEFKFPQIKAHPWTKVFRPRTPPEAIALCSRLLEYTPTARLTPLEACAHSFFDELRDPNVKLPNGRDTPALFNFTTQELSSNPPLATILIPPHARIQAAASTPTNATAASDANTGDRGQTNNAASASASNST

Row | pIC50 [1] | pIC50 (GSK3-β) | SMILES
1 | > 4.70 | > 5.00 | CC(C)(C)C1CCC(NC(=O)c2n[nH]cc2NC(=O)c2c(F)cccc2F)CC1 (centres unmarked) [Example 77]
2 | > 4.70 | – | COc1ccc(CNC(=O)c2n[nH]cc2NC(=O)c2c(F)cccc2F)cc1 [Example 62]
3 | > 4.70 | – | CN1CCN(c2ccc(CNC(=O)c3n[nH]cc3NC(=O)c3c(F)cccc3F)cc2)CC1 [Example 64]

Row | SMILES | pIC50 [1] | pIC50 (GSK3-β)
4 | O=C(NC1CCNCC1)c1n[nH]cc1NC(=O)c1c(Cl)cccc1Cl [Example 150] | > 4.70 | –

— patent publication US9051278B2, “3,4-disubstituted 1H-pyrazole compounds and their use as cyclin dependent kinase and glycogen synthase kinase-3 modulators” (Astex Therapeutics, Ltd., priority 2003, dated 2015)
